The results in this text go back to patent publication US10471028B2, “Small molecule efflux pump inhibitors” (UNIVERSITY OF ROCHESTER, priority 2014, dated 2019).

Where two headings read alike, the source gives them in different places.

Data set [1] deals with A. baumannii strain 98-37-09. Put plainly: MEC determination: potentiation of minocycline toward serum grown A. baumannii. Format: cell-based, Acinetobacter baumannii. To be noted: for Log-reduction Colony Forming Units (ml^−1): 1×MEC of compound plus minocycline in serum, versus minocycline alone, plating; for MEC: lowest concentration inhibiting growth in 100% human serum with 0.5 μg ml^−1 minocycline, 48 hr. Here is the method:
The TimTec ActiProbe-25K diversity-set and Natural Product compound libraries (29,900 compounds total; TimTec, Newark, Del.) were initially screened for putative efflux pump inhibitors by identifying compounds that potentiated the antimicrobial property of a sub-inhibitory concentration of minocycline toward A. baumannii grown in human serum. To do so, A. baumannii strain 98-37-09 was grown for 16 hours in LB medium at 37° C. on a rotary shaker at 225 rpm. Approximately 1×10^5 CFU were then transferred to individual wells of a 96-well round-bottom plate (Corning Costar, Tewksbury, Mass.) containing 100 μL of human serum supplemented with of minocycline (0.5 μg mL^−1; 0.5× minimum inhibitory concentration in serum) and individual members of the Timtec ActiProbe or Natural product library (50 μM). Plates were then incubated at 37° C. for 48 hours. Growth was measured as a function of turbidity. Putative efflux pump inhibitors were identified as compounds that inhibited A. baumannii growth in human serum containing minocycline and were subsequently retested in triplicate, as indicated above. Untreated A. baumannii grown in serum supplemented with minocycline+/−PAβN served as positive and negative controls, respectively. […] Repeat testing in which well constituents were serial diluted and plated on LB agar plates validated that 85 compounds did indeed limit A. baumannii growth in serum supplemented with minocycline, reducing the number of viable colony forming units between 2-6 log cfu in comparison to minocycline alone treated cells.
The MEC was defined as the lowest concentration of test compound required to inhibit the growth of A. baumannii in serum in the presence of 0.5 μg ml^−1 minocycline. Plating confirmed that addition of 1×MEC of each compound elicited ≥1.9-log reduction in A. baumannii cells grown in serum supplemented with minocycline alone (see Table 1).

Another data set concerns human HepG2 cells. Put plainly: MTT cell viability (cytotoxicity) assay. As for the experimental part: To distinguish putatively non-toxic from human cytotoxic compounds, conventional 3-(4,5-dimethylthiazol-2yl)-2,5-diphenyltetrazolium bromide (MTT) cell viability assays (American Type Culture Collection, Manassas, Va.) were performed for each compound of interest at 1× and 4× their MEC. Briefly, human HepG2 cells were grown to approximately 1×10^6 cells per well in Dulbecco's Modified Eagle Media supplemented with 10% fetal bovine serum (Invitrogen, Carlsbad, Calif.) then treated with 1× or 4× the MEC of the indicated […] Cell viability was measured following the addition of the tetrazolium salt (MTT) as per the manufacturer's recommendations; cells challenged with 50 ug ml^−1 Mitomycin C (Sigma Aldrich) and mock-treated cells served as positive and negative controls, respectively.

Data set [2] deals with A. baumannii strain 98-37-09. Briefly: Cellular accumulation of minocycline (HPLC, triple-quadrupole MS). The conditions noted are these: for Minocylcine Per Cell (femtomoles cell^−1): human serum with 0.5 μg mL^−1 minocycline plus test compound (0.5×MEC, 1×MEC), 48 hours. In kind it is cell-based, Acinetobacter baumannii. As for the experimental part: High pressure liquid chromatography and triple-quadrupole mass spectrometry were used to measure the A. baumannii intracellular levels of minocycline during growth in human serum in the absence and presence of each putative efflux pump inhibitor. […] Cultures were incubated for 48 hours with shaking, at which point an aliquot was removed, serially diluted, and plated to determine the number of viable CFU per mixture. The remainder of the cells were pelleted by centrifugation at 900×g at 4° C., washed twice in PBS, mechanically lysed with a FastPrep cell disrupter (MP Biomedicals, Santa Ana, Calif.) for 20 seconds at 5 m s^−1 and the cellular debris was pelleted via centrifugation at 900×g and 4° C. The amount of minocycline present within the supernatant of ruptured cells was measured. Briefly, doxycycline (0.5 μg mL^−1) was first added to each supernatant to serve as an internal control to account for sample-to-sample preparation variability. The supernatant was then combined with acetonitrile (ACN) at a 1:10 ratio and centrifuged at 16,000×g, at 4° C., to collect minocycline and doxycycline. […] residual liquid was evaporated in a speed vacuum for 2 hours at 8,000×g. To quantify the amount of antibiotics retained, sample materials were suspended in 50% acetonitrile, filtered through a 0.2 μm low protein binding hydrophilic membrane (Millipore, Billerica, Mass.) then separated on Shimadzu high performance liquid chromatography instrument (Fisher Scientific) using a BetaBasic C18 reverse phase column (Thermo Scientific). Separation was carried out with two mobile phase solutions consisting of solution (A) water with 0.1% formic acid and solution (B) 100% ACN. The gradient profile of the chromatography runs was as follows: from 0 to 0.1 min 8% solution B, ramp step wise (37% to 60% solution B) from 0.1 to 6.5 min then holding for one minute before ramping down from 60% to 10% from 7.5 to 8 min. This was followed a hold at 10% solution B for one minute. […] The column was equilibrated in 8% solution B at 40° C. and the flow rate was set to 0.2 mL min^−1. Mass spectrometry analysis of fractions was carried out using a Thermo TSQ Quantum Ultra triple quadrupole mass spectrometer (Fisher Scientific). Data were analyzed using Xcalibur software (Thermo Scientific); the following parameters were used to detect minocycline and the internal control doxycycline: 458.208 m/z→282.971 m/z (collision energy=43, tube lens=119) for minocycline and 445.144 m/z→266.900 m/z (collision energy=39, tube lens=127) for doxycycline. Analysis of the raw data was conducted by using the area under the curve calculations with the Genesis algorithm to determine the concentration in each sample. The difference between the peak intensity and the y intercept of pre-established minocycline and doxycycline standard curves was divided by the slope of the standard curve to quantify the amount of minocycline within each sample. The total concentration of minocycline within each cell was calculated by normalizing to the number of cells within each corresponding culture.

For the molecule `c1ccc(CN2CCN(Cc3ccccc3)C2c2cccs2)cc1` [ST007852], in data set [1], the “Log-reduction Colony Forming Units (ml^−1)” value was determined as 4.21 log and the MEC came out at 4 µg/mL. For the same molecule, the “% Viability” value in the data set with human HepG2 cells was 65.77%. Further, the “Minocylcine Per Cell (femtomoles cell^−1)” value (“Minocylcine Per Cell” below) in data set [2] was found to be 5.9E−05 femtomoles cell^−1.
For the molecule `CC1CCN(Cc2cc(Cl)c3cccnc3c2O)CC1` [ST007924], in data set [1], the “Log-reduction Colony Forming Units (ml^−1)” value is on record as 2.42 log and the MEC is 4 µg/mL. The “% Viability” value with human HepG2 cells was found to be 67.45%. Moreover, the “Minocylcine Per Cell” value in data set [2] is on record as 5.12E−05 femtomoles cell^−1.
As for `CCOc1ccc(/C=N/c2ccc(S(N)(=O)=O)cc2)cc1` [ST009694], in data set [1], the “Log-reduction Colony Forming Units (ml^−1)” value is 6.24 log and the MEC was 4 µg/mL. The “% Viability” value in the data set on human HepG2 cells was 74.6%. Besides, the “Minocylcine Per Cell” value in data set [2] is given as 6.8E−07 femtomoles cell^−1.
As for `NS(=O)(=O)c1ccc(/N=C/c2ccc(F)cc2)cc1` [ST009698], in data set [1], the “Log-reduction Colony Forming Units (ml^−1)” value is listed as 6.45 log and the MEC stood at 64 µg/mL. Besides, the “% Viability” value in the data set with human HepG2 cells turned out to be 73.56%. The “Minocylcine Per Cell” value in data set [2] worked out at 1.52E−05 femtomoles cell^−1.
On the same counts, the results for `NS(=O)(=O)c1ccc(/N=C/c2ccc(Br)cc2)cc1` [ST009699] are 6.84 log, 2 µg/mL, 70.45% and 1.15E−04 femtomoles cell^−1.
For the molecule `CCOc1ccccc1C(=O)Nc1sc2c(c1C(=O)OC(C)C)CCCC2` [ST009896], in data set [1], the “Log-reduction Colony Forming Units (ml^−1)” value stood at 2.45 log and the MEC was determined as 2 µg/mL. Further, in the data set with human HepG2 cells, the “% Viability” value is 73.54%. The “Minocylcine Per Cell” value in data set [2] is 3.99E−05 femtomoles cell^−1.
The like results for `O=C(c1ccc([N+](=O)[O-])cc1Cl)N1CCCc2ccccc21` [ST011123] were, in that order, 2.83 log, 32 µg/mL, 67.89% and 1.19E−05 femtomoles cell^−1.
Consider `O=[N+]([O-])c1cc2c(cc1/C=N/c1ccc(S(=O)(=O)Nc3nccs3)cc1)OCO2` [ST012902], for which, in data set [1], the “Log-reduction Colony Forming Units (ml^−1)” value was determined as 3.71 log and the MEC was determined as 2 µg/mL. Also, the “% Viability” value with human HepG2 cells was 55.1%. Moreover, the “Minocylcine Per Cell” value in data set [2] is given as 1.1E−05 femtomoles cell^−1.
On the same counts, the results for `O=[N+]([O-])c1cccc(/C=N/c2ccc(S(=O)(=O)Nc3nccs3)cc2)c1` [ST012961] are 6.23 log, 32 µg/mL, 59.32% and 1.13E−04 femtomoles cell^−1.
The like results for `COc1ccc(/C=N/c2ccc(S(N)(=O)=O)cc2)c(OC)c1` [ST016442] were, in that order, 3.88 log, 2 µg/mL, 53.43% and 1.96E−04 femtomoles cell^−1.
On the same counts, the results for `COc1ccc(OC)c(/C=N/c2ccc(S(N)(=O)=O)cc2)c1` [ST016443] are 2.00 log, 2 µg/mL, 57.49% and 4.4E−04 femtomoles cell^−1.
On to `CCc1ccc(/C=N/c2ccc(S(N)(=O)=O)cc2)cc1` [ST016444], for which, in data set [1], the “Log-reduction Colony Forming Units (ml^−1)” value is listed as 4.86 log and the MEC worked out at 16 µg/mL. The “% Viability” value with human HepG2 cells was found to be 53.92%. The “Minocylcine Per Cell” value in data set [2] is listed as 2.02E−05 femtomoles cell^−1.
In the case of `COc1ccc(O)c(/C=N/N=C/c2cc(OC)ccc2O)c1` [ST020959], in data set [1], the “Log-reduction Colony Forming Units (ml^−1)” value was determined as 6.90 log and the MEC amounted to 2 µg/mL. Moreover, the “% Viability” value with human HepG2 cells (human, 48 h, 4 ×MEC) was found to be 51.04%. Besides, in data set [2], the “Minocylcine Per Cell” value is recorded as 1.27E−04 femtomoles cell^−1.
Take `Cc1nnc(SCC2=C(C(=O)[O-])N3C(=O)[C@@H](NC(=O)Cn4cnnn4)[C@H]3SC2)s1.[Na+]` [ST024775]: in data set [1], the “Log-reduction Colony Forming Units (ml^−1)” value was found to be 4.84 log and the MEC was 16 µg/mL. In the data set with human HepG2 cells (HepG2 cellular survival at 4×MEC), the “% Viability” value is on record as 41.62%. For the same molecule, in data set [2], the “Minocylcine Per Cell” value is 1.72E−05 femtomoles cell^−1.
Turning to `O=C(c1ccc(Cl)cc1Cl)n1cc([N+](=O)[O-])cn1` [ST033231], in data set [1], the “Log-reduction Colony Forming Units (ml^−1)” value is 1.91 log and the MEC turned out to be 32 µg/mL. Moreover, the “% Viability” value in the data set with human HepG2 cells is recorded as 70.87%. Besides, the “Minocylcine Per Cell” value in data set [2] stood at 3.42E−06 femtomoles cell^−1.
The like results for `COc1cc(/C=N/NC(=O)c2sc3ccccc3c2Cl)cc(OC)c1OC` [ST033346] were, in that order, 2.00 log, 2 µg/mL, 74.67% and 3.615E−07 femtomoles cell^−1.
Take `Nc1nnc(SCC(=O)N2CCCC2)s1` [ST059421]: in data set [1], the “Log-reduction Colony Forming Units (ml^−1)” value is reported as 6.31 log and the MEC was determined as 4 µg/mL. Further, the “Minocylcine Per Cell” value in data set [2] is 1.27E−07 femtomoles cell^−1.
The like results for `CCN(CC)S(=O)(=O)c1ccc(NC(=O)C2CC(=O)N(c3ccc(OC)cc3)C2)cc1` (stereo not drawn) [ST059822] were, in that order, 6.23 log, 4 µg/mL and 1.36E−07 femtomoles cell^−1.
Regarding `CCCCOc1ccc(C(=O)NCCC2=CCCCC2)cc1` [ST060056], in data set [1], the “Log-reduction Colony Forming Units (ml^−1)” value worked out at 5.38 log and the MEC is 4 µg/mL. The “Minocylcine Per Cell” value in data set [2] is recorded as 4.22E−08 femtomoles cell^−1.
Consider `COc1ccc(-c2c3c([nH]c(=O)c2C#N)CCCCC3)cc1` [ST060355], for which, in data set [1], the “Log-reduction Colony Forming Units (ml^−1)” value turned out to be 6.94 log and the MEC was 32 µg/mL. Besides, the “Minocylcine Per Cell” value in data set [2] turned out to be 1.23E−08 femtomoles cell^−1.
`CN(C)c1ccc(O)c2c1C[C@H]1C[C@H]3[C@H](N(C)C)C(O)=C(C(N)=O)C(=O)[C@@]3(O)C(O)=C1C2=O` [minocycline, reference compound] gave a HepG2 survival in the data set with human HepG2 cells (minocycline tested alone at 2 μg ml^−1) of 77.9%. In addition, the cellular minocycline concentration in data set [2] (growth in serum (efflux active conditions), minocycline without efflux inhibitor) was 1.58×10^−10 femtomoles per bacterial cell.
